1 compound from patent US20100197584A1, “USE OF CURCUMIN TO BLOCK BRAIN TUMOR FORMATION IN MICE” (Research Foundations of the City University of- New York, priority 2007, published 2010) can be followed below.

For the data set, the system named is normal (non-tumor) brain cells. Briefly: Normal brain cell viability (MTT on brain sections). The class given is in vivo. The settings on record: brain sections of untreated mice treated with 1 mM in PBS for one hour; positive control for cell death (FIG. 10). Here is the method: In each experiment, three mice were injected with 200 μl of PBS containing 3% DMSO, and three mice were injected with 200 μl of 667 μM curcumin (as described earlier) through the tail vein on three consecutive days by the method described above. On the fourth day, the mice were perfused with PBS through the heart, and the brains sectioned into 400-μm sections. Similar brain sections were also made from untreated mice which were then treated with 1 mM H2O2 in PBS for one hour, followed by incubation in H2O2-free DTM for three hours. These samples were used as a positive control for cell death.
The sections from each mouse were placed in 400 μl PBS in one well of a 48-well plate (i.e. three wells for three mice) and then treated with 200 μl of MTT (5 mg/ml) per well with gentle mixing at 37° C. for about 2 hours. Subsequently, 800 μl of the lysis buffer was added to each well, and the plate was sealed and incubated overnight at 37° C. with gentle mixing. Three 100-μl portions of the tissue solution obtained were next transferred to three respective wells of a 96-well plate (i.e. three wells per mouse and nine wells for three mice in one group) and absorbance at 570 nm was measured using a 96-well multi scanner auto-reader. Results obtained were normalized to protein levels and then expressed as percent of carrier-treated samples.

Turning to `OO` [H2O2, reference compound], the “cell viability in brain slices (MTT activity)” value was “dramatic decrease”.
